For 3 molecules, mortality results are on record in patent publication US20260347335A1, “PESTICIDALLY ACTIVE CYCLIC AMINE COMPOUNDS” (SYNGENTA CROP PROTECTION AG, priority 2022, published 2026).

The assay deals with Tetranychus urticae (Two-Spotted Spider Mite). Description: Example B1: Tetranychus urticae (Two-Spotted Spider Mite): Feeding/Contact Activity. In kind it is in vivo. The note with it: foliar, 192 h, application rate of 200 ppm, 8 days after infestation, bean leaf discs on agar, mites of mixed ages, read-out: mortality on mixed population (mobile stages). The protocol: Example B1: Tetranychus urticae (Two-Spotted Spider Mite): Feeding/Contact Activity
Bean leaf discs on agar in 24-well microtiter plates were sprayed with aqueous test solutions prepared from 10,000 ppm DMSO stock solutions. After drying the leaf discs were infested with a mite population of mixed ages. The samples were assessed for mortality on mixed population (mobile stages) 8 days after infestation.

Usually mortality stands for the share of the test organisms that died.

Consider `CC(=O)NC1(C2CCN(C(=O)c3cc(C#N)c(OCc4cc(Cl)ccc4F)nc3C(F)F)CC2)CC1` [Compound P1.18, N-[1-[1-[6-[(5-chloro-2-fluoro-phenyl)methoxy]-5-cyano-2-(difluoromethyl)pyridine-3-carbonyl]-4-piperidyl]cyclopropyl]acetamide], for which the mortality at 200 ppm is at least 80%.

On to `CC(C)(NS(C)(=O)=O)C1CCN(C(=O)c2cc(C#N)c(OCc3ccc4c(c3)OC(F)(F)O4)nc2C(F)F)CC1` [Compound P1.1, N-[1-[1-[5-cyano-6-[(2,2-difluoro-1,3-benzodioxol-5-yl)methoxy]-2-(difluoromethyl)pyridine-3-carbonyl]-4-piperidyl]-1-methyl-ethyl]methanesulfonamide], for which the mortality at 200 ppm was at least 80%.

As for `CC(=O)NC1(C2CCN(C(=O)c3cc(C#N)c(OCc4ccc5c(c4)OC(F)(F)O5)nc3C(F)F)CC2)CC1` [Compound P1.6, N-[1-[1-[5-cyano-6-[(2,2-difluoro-1,3-benzodioxol-5-yl)methoxy]-2-(difluoromethyl)pyridine-3-carbonyl]-4-piperidyl]cyclopropyl]acetamide], the mortality at 200 ppm is at least 80%.
